Changes are numbered by the printed parent chain. Like-named read-outs stand apart in the source and are kept apart here.
Key:
[1] = biological target: T1, DR1=HLA-DR(α1*0101,α1*0101) (Homo sapiens, UniProt P01903+P01911, A100R/D57E/F55L/F60I/F76Y/I96L/L162R/M171V/P40L/Q125E/R42F/V115G/Y59C); assay: biochemical; format: binding; conditions: […]
T1 construct: endogenous in cells; host or cells: EBV homozygous human B cell line

[2] = biological target: T2, DR3=HLA-DR(α1*0101,α1*0301) (Homo sapiens, UniProt P01903+P01911, A100K/A102G/A103R/A169T/F55Y/I96L/K41T/L162R/M171V/P40S/Q125H/Q178H/Q39Y/R42S/S66N/T106N/T262R/W38E/Y61H); assay: HLA-DR specific binding assay, DR3
T2 construct: endogenous in cells; host or cells: STEILIN (EBV homozygous B cell line)

[3] = biological target: T3, DR4=HLA-DR(α1*0101,α1*0401) (Homo sapiens, UniProt P01903+P01911, A100K/A169T/F76Y/I96L/K127E/L162R/M171V/N62H/P40V/Q125Y/R42H/S133A/S149N/S66Y/V115G/V209L/W38E); assay: biochemical; format: binding
T3 construct: endogenous in cells; host or cells: BOLETH (EBV homozygous B cell line)

[4] = biological target: T4, DR7=HLA-DR(α1*0101,α1*0701) (Homo sapiens, UniProt P01903+P01911, A100R/A102G/A103Q/D57E/D86V/E43K/F76Y/K127E/L162R/M171V/P40G/Q125H/Q99D/R33Q/R42Y/R54Q/S133A/S66F/T210M/V115G/Y107V/Y59L/Y89S); assay: HLA-DR specific binding assay, DR7
T4 construct: endogenous in cells; host or cells: EBV homozygous human B cell line

[5] = biological target: T5, DR11=HLA-DR(α1*0101,α1*1101) (Homo sapiens, UniProt P01903+P01911, A100R/A169T/A87E/I96F/K41T/L162R/M171V/P40S/Q125H/Q178H/Q39Y/Q99D/R42S/S66Y/T262R/V115G/W38E); assay: biochemical; format: binding
T5 construct: endogenous in cells; host or cells: SWEIG (EBV homozygous B cell line)

[6] = biological target: T6, DR13=HLA-DR(α1*0101,α1*1301) (Homo sapiens, UniProt P01903+P01911, A100E/A169T/K41T/L162R/M171V/P40S/Q125H/Q178H/Q39Y/Q99D/R42S/S66N/T262R/W38E/Y61H); assay: HLA-DR specific binding assay, DR13
T6 construct: endogenous in cells; host or cells: 0206AD (EBV homozygous B cell line)

[7] = biological target: T7, DR15=HLA-DR(α1*0101,α1*1501) (Homo sapiens, UniProt P01903+P01911); assay: HLA-DR specific binding assay, DR15
T7 construct: endogenous in cells; host or cells: EBV homozygous human B cell line

[8] = biological target: T8, DRB3=HLA-DR(α1*0101,α3*0101) (Homo sapiens, UniProt P01903+P79483); assay: HLA-DR specific binding assay, DRB3 (DR52)
T8 construct: endogenous in cells; host or cells: STEILIN or 0206AD (both typed DRB3*0101)
T8 sequence (P79483 30-266, other chains not shown): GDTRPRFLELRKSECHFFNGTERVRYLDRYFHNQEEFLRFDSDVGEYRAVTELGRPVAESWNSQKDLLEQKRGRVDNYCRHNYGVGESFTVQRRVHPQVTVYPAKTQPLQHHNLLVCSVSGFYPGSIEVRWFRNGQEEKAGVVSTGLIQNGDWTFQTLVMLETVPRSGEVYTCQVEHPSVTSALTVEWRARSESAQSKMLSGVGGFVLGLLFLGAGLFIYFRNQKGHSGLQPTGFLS

[9] = biological target: T9, DRB4=HLA-DR(α1*0101,α4*0101) (Homo sapiens, UniProt P01903+P13762, G164S); assay: HLA-DR specific binding assay, DRB4 (DR53)
T9 construct: endogenous in cells

[10] = biological target: T10, DRB5=HLA-DR(α1*0101,α5*0101) (Homo sapiens, UniProt P01903+Q30154); assay: biochemical; format: binding; conditions: Table V; […]; read-out: IC50 DRB5
T10 construct: endogenous in cells; host or cells: EBV homozygous human B cell line
T10 sequence (Q30154 30-266, other chains not shown): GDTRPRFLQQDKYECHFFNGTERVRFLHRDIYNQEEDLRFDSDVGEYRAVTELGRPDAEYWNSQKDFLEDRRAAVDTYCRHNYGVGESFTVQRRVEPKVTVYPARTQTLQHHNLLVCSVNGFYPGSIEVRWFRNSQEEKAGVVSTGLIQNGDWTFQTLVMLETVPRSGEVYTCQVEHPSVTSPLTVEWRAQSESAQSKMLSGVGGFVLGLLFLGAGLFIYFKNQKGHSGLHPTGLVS

[11] = biological target: T11, DP401=HLA-DP(α1*0101,α1*0401) (Homo sapiens, UniProt P04440+P20036); assay: biochemical; format: binding
T11 sequence (P20036 32-260 limits assumed): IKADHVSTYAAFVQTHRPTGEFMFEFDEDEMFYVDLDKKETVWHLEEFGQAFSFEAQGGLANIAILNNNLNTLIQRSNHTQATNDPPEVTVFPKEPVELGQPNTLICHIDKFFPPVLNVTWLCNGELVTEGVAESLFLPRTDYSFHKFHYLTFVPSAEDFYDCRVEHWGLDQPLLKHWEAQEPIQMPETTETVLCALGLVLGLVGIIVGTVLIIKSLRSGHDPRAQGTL
T11 sequence (P04440 30-258): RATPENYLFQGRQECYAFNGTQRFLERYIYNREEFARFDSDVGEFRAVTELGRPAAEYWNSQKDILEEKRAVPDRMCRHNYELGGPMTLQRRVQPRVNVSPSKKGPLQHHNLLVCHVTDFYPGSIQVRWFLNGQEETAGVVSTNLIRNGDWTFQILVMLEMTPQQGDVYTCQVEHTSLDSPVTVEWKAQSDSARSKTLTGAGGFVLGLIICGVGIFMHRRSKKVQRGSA

[12] = biological target: T12, DP402 DP (α1*0101, α1*0402) (Homo sapiens, UniProt P04440+P20036, A65V/A84D/A85E/L207M); assay: biochemical; format: binding
T12 sequence (P20036 29-260): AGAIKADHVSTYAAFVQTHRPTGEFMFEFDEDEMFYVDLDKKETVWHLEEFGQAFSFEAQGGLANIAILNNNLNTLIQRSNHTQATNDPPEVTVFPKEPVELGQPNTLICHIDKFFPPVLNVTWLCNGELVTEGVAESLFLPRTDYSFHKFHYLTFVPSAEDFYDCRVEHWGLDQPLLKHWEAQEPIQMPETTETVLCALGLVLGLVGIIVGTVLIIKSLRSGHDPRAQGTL
T12 sequence (P04440 30-258 A65V/A84D/A85E): T11 sequence (P04440 30-258) with A36V, A55D, A56E

[13] = Table V, […], read-out: IC50 DR4
[14] = Table V, […], read-out: IC50 DR11

Row | Compound | IC50 ([1]; Table V, read-out: IC50 DR1) [nM] | IC50 ([2]; IC50 DR3, Table V, […]) [nM] | IC50 [3, 13] [nM] | IC50 [4] [nM] | IC50 [5, 14] [nM] | IC50 [6] [µM] | IC50 [7] [nM] | IC50 ([8]; IC50 DRB3, Table V, […]) [µM] | IC50 [9] [µM] | IC50 [10] [nM] | IC50 ([11]; Table V, […]) [µM] | IC50 ([12]; Class II MHC allele DP402) [µM] | IC50 ([12]; Table V, […]) [µM] | IC50 ([1]; Class II MHC allele DR1, read-out: IC50, DR1) [nM] | IC50 ([2]; IC50, DR3, Class II MHC allele DR3) [nM] | IC50 ([11]; Class II MHC allele DP401) [µM] | IC50 ([5]; Class II MHC allele DR11, read-out: IC50, DR11) [nM] | IC50 ([3]; IC50 DR4) [nM] | IC50 ([8]; IC50, DRD3, Class II MHC allele DRD3 (so in the source)) [µM]
1 | CSCC[C@H](NC(=O)[C@H](CC(=O)O)NC(=O)[C@@H](NC(=O)[C@@H](NC(=O)[C@H](CCCCN)NC(=O)[C@H](C)NC(=O)[C@H](CO)NC(=O)[C@H](CC(C)C)NC(=O)[C@H](CC(C)C)NC(=O)[C@H](C)NC(=O)[C@H](CO)NC(=O)[C@@H](NC(=O)CN)[C@@H](C)O)C(C)C)[C@@H](C)O)C(=O)N[C@H](C(=O)N[C@@H](CCSC)C(=O)N[C@@H](CCCNC(=N)N)C(=O)N[C@@H](CCCCN)C(=O)N[C@@H](CCCNC(=N)N)C(=O)N[C@@H](CCCNC(=N)N)C(=O)N[C@@H](CC(N)=O)C(=O)N[C@H](C(=O)N[C@@H](CC(N)=O)C(=O)N[C@@H](Cc1ccc(O)cc1)C(=O)N[C@H](C(=O)N[C@@H](CCC(N)=O)C(=O)N[C@H](C(=O)N1CCC[C@H]1C(=O)N[C@@H](CC(N)=O)C(=O)N[C@@H](CCCCN)C(=O)N[C@@H](CC(=O)O)C(=O)NCC(=O)N[C@@H](CC(=O)O)C(=O)N[C@@H](C)C(=O)N[C@@H](CC(=O)O)C(=O)O)C(C)C)[C@@H](C)O)[C@@H](C)O)C(C)C [HSV 9] | 493 | 11400 | 4000 | 229 | 424 | 0.362 | 2430 | 58 | 16 | 559 | 8 | 4 | 4 | – | – | – | – | – | –
2 | CSCC[C@H](NC(=O)[C@H](CCCCN)NC(=O)[C@H](CC(C)C)NC(=O)[C@H](CO)NC(=O)[C@H](C)NC(=O)[C@H](CC(=O)O)NC(=O)[C@@H](NC(=O)[C@H](CC(C)C)NC(=O)[C@H](C)NC(=O)[C@H](Cc1ccc(O)cc1)NC(=O)[C@H](CCCCN)NC(=O)[C@@H](N)CO)C(C)C)C(=O)N[C@@H](C)C(=O)N[C@@H](CC(=O)O)C(=O)N1CCC[C@H]1C(=O)N[C@@H](CC(N)=O)C(=O)N[C@@H](CCCNC(=N)N)C(=O)N[C@@H](Cc1ccccc1)C(=O)N[C@@H](CCCNC(=N)N)C(=O)NCC(=O)N[C@@H](CCCCN)C(=O)N[C@@H](CC(=O)O)C(=O)N[C@@H](CC(C)C)C(=O)N1CCC[C@H]1C(=O)N[C@H](C(=O)N[C@@H](CC(C)C)C(=O)N[C@@H](CC(=O)O)C(=O)N[C@@H](CCC(N)=O)C(=O)N[C@@H](CC(C)C)C(=O)O)C(C)C [HSV 30] | – | 78 | 58 | 374 | 648 | > 100 | 11000 | 0.535 | > 100 | 7 | 17.9 | – | 3.8 | 58 | 79 | 17.7 | – | – | –
3 | CC[C@H](C)[C@H](NC(=O)[C@H](CCC(N)=O)NC(=O)[C@@H]1CCCN1C(=O)[C@H](C)N)C(=O)N[C@H](C(=O)N[C@@H](CCCNC(=N)N)C(=O)NCC(=O)N[C@@H](C)C(=O)N[C@@H](CO)C(=O)N[C@@H](CCC(=O)O)C(=O)N[C@@H](CC(=O)O)C(=O)N[C@H](C(=O)N[C@@H](CCCNC(=N)N)C(=O)N[C@@H](CCCCN)C(=O)N[C@@H](CCC(N)=O)C(=O)N1CCC[C@H]1C(=O)N[C@@H](Cc1ccc(O)cc1)C(=O)N[C@@H](CC(N)=O)C(=O)N[C@@H](CC(C)C)C(=O)N[C@H](C(=O)N[C@H](C(=O)N[C@@H](C)C(=O)N[C@@H](Cc1c[nH]c2ccccc12)C(=O)N[C@@H](Cc1ccccc1)C(=O)N[C@@H](CCCNC(=N)N)C(=O)N[C@@H](CCSC)C(=O)NCC(=O)NCC(=O)O)[C@@H](C)CC)[C@@H](C)O)C(C)C)C(C)C [HSV 32] | – | 2350 | – | 4 | 300 | – | – | > 100 | – | 1 | 1.45 | – | 0.381 | – | – | – | 300 | – | –
4 | CC[C@H](C)[C@H](NC(=O)[C@H](Cc1c[nH]cn1)NC(=O)[C@H](Cc1ccc(O)cc1)NC(=O)[C@@H](NC(=O)[C@H](CCCNC(=N)N)NC(=O)[C@H](CCCNC(=N)N)NC(=O)[C@@H](NC(=O)CNC(=O)[C@@H]1CCCN1C(=O)[C@@H]1CCCN1C(=O)[C@H](CC(=O)O)NC(=O)[C@@H](NC(=O)[C@H](CC(C)C)NC(=O)[C@H](CCC(N)=O)NC(=O)[C@H](CC(=O)O)NC(=O)[C@H](CC(C)C)NC(=O)[C@@H](NC(=O)[C@@H]1CCCN1C(=O)[C@H](CC(C)C)NC(=O)[C@@H](N)CC(=O)O)C(C)C)[C@@H](C)O)C(C)C)C(C)C)C(=O)N[C@@H](CCC(N)=O)C(=O)N[C@@H](C)C(=O)NCC(=O)N[C@@H](CC(C)C)C(=O)N1CCC[C@H]1C(=O)N[C@@H](CC(=O)O)C(=O)N1CCC[C@H]1C(=O)N[C@@H](Cc1ccccc1)C(=O)N[C@@H](CCC(N)=O)C(=O)N1CCC[C@H]1C(=O)N1CCC[C@H]1C(=O)N[C@@H](CO)C(=O)O [HSV 31] | 3 | 2490 | – | 224 | – | > 100 | 787 | 5.98 | 0.397 | 58 | 62 | 49 | 47 | – | – | – | – | 63 | 6.98

— patent US20080299140A1, “Immunogenic Composition and Peptide Sequences for Prevention and Treatment of an Hsv Condition” (priority 2002, published 2008)
